Tests used:
[1] = target: T1, MrgprX1 (Homo sapiens, UniProt Q96LB2); assay: Intracellular calcium measurement (Fluo-4 NW) in HEK293T cells expressing MrgprX1; format: cell-based
T1 construct: expressed in transfected cells
Procedure: To identify novel antagonists of MrgprX1, a cell-based screening assay was established. […] Cells were treated with the indicated concentrations of CQ where the arrow indicates. (B) Summary of dose-response (mean ± S.E., n = 6). (C) Representative Fluo−4 fluorescence traces of MrgprX1 antagonist screening. Cells were treated with 30 μM of the test compounds for 10 min prior to treatment with 300 μM CQ.
Figure 2 Effect of berbamine and closantel on CQ- and ionomycin-induced increases in intracellular calcium levels: (A,B) Intracellular calcium levels were measured using Fluo−4 NW in HEK293T cells expressing MrgprX1. The cells were pretreated with the indicated concentrations of berbamine (BBM) and closantel (CLS) for 10 min prior to treatment with 300 μM CQ. (C) Summary of dose-response (mean ± S.E., n = 6). […] The cells were pretreated with the indicated concentrations of BBM and CLS for 10 min before treatment with ionomycin. (F) Summary of dose–response (mean ± S.E., n = 6).
Intracellular calcium levels were measured using a Fluo-4 NW calcium assay kit (Invitrogen, Carlsbad, CA) as per the manufacturer’s protocol in HEK293T and HT29 cells. Briefly, the cells were plated in a 96-well black-walled plate and incubated with 100 μL of assay buffer including Fluo-4 NW. […] Intracellular calcium increase was induced with the application of the indicated agonist. All modulators were dissolved in DMSO, and cells were treated with a final concentration of 1% DMSO.

[2] = target: T2, histamine H1 receptor (H1R) (Homo sapiens, UniProt P35367); assay: Histamine-induced activation of H1R in H1R-expressing HEK293T cells (calcium); format: cell-based; conditions: 30 μM compound, 10 min prior to 100 μM histamine
T2 construct: expressed in transfected cells; host or cells: HEK293T
T2 sequence (P35367 whole entry, species assumed): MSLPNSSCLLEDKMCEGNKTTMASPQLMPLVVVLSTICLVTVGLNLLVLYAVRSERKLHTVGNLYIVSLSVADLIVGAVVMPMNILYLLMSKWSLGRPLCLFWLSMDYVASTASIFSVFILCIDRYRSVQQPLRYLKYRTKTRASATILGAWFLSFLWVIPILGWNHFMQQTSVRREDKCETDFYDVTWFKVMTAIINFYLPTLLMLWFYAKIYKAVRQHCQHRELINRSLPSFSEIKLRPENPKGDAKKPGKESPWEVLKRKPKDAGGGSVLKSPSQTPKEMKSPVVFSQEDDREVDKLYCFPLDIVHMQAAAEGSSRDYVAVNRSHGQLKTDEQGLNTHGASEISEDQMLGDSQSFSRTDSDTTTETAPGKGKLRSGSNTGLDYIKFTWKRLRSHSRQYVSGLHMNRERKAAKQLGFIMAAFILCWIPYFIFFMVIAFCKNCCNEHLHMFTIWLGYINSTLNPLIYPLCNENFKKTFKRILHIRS
Procedure: (§1) To investigate the effect of berbamine on other pruritogenic GPCRs, we observed the effect of berbamine on histamine H1 receptor (H1R), histamine H4 receptor (H4R), MrgprC11, MrgprX4, PAR2, and TGR5.
(§2) Figure 3 Effects of berbamine on the activity of other pruritogenic GPCRs: (A,B) Effect of berbamine on histamine 1 receptor (H1R) and histamine 4 receptor (H4R). H1R- and H4R-expressing HEK293T cells were pretreated with 30 μM BBM for 10 min prior to 100 μM histamine treatment. […] (C) Effect of berbamine on PAR2. HT29 cells were pretreated with BBM for 10 min prior to 30 μM PAR2-AP treatment. […] (D) Effect of berbamine on MrgprC11. MrgprC11-expressing HEK293T cells were pretreated with BBM for 10 min prior to 100 μM […] treatment. (E) Effect of berbamine on MrgprX4. MrgprX4-expressing HEK293T cells were pretreated with BBM for 10 min prior to 80 μM DCA treatment. (F) Effect of berbamine on TGR5. TGR5 activity was measured using a YFP fluorescence quenching assay. CHO-K1 cells coexpressing TGR5 and a halide sensor YFP were pretreated with BBM and 80 μM DCA for 10 min prior to I^- treatment. Results were summarized as means ± S.E. (n = 6). NTC, nontransfected cells.
(§3) Intracellular calcium levels were measured using a Fluo-4 NW calcium assay kit (Invitrogen, Carlsbad, CA) as per the manufacturer’s protocol in HEK293T and HT29 cells. […]

[3] = target: T3, PAR2 (Homo sapiens, UniProt P55085); assay: PAR2-AP-induced activation of PAR2 in HT29 cells (calcium); format: cell-based; conditions: 30 μM compound, 10 min prior to 30 μM PAR2-AP
T3 construct: endogenous in cells; host or cells: HT29
T3 sequence (P55085 26-397): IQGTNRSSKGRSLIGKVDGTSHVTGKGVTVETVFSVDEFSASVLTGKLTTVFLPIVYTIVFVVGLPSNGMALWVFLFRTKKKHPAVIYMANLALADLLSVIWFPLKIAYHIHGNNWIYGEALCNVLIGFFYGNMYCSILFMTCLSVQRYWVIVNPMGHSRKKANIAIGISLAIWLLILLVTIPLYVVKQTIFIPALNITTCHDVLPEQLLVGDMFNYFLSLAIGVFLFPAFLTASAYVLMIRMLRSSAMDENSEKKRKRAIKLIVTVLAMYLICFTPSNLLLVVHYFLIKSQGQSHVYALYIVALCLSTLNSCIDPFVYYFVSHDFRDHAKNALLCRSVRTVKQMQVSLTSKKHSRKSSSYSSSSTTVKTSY
Procedure: as §1, §2, §3

[4] = target: T4, MrgprX4 (Homo sapiens, UniProt Q96LA9); assay: DCA-induced activation of MrgprX4 in MrgprX4-expressing HEK293T cells (calcium); format: cell-based; conditions: 30 μM, 10 min prior to 80 μM DCA
T4 construct: expressed in transfected cells; host or cells: HEK293T
T4 sequence (Q96LA9 whole entry): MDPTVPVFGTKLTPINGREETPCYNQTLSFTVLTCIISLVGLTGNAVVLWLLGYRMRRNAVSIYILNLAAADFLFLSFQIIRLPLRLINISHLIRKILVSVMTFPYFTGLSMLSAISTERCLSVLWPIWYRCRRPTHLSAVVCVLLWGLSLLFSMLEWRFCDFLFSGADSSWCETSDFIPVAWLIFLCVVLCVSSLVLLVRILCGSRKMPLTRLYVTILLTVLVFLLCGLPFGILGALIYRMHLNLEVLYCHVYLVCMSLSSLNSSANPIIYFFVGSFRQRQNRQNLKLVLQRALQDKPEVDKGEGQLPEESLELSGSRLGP
Procedure: as §1, §2, §3

[5] = test system: DCA-induced itch; assay: DCA-induced pruritus in mice (scratching bouts); format: in vivo, BALB/c mice; conditions: 30 mg/kg i.p., DCA 50 μg/50 μL
Procedure: To investigate the antipruritic effect of berbamine, we observed the effect of berbamine on pruritogen-induced scratching behavior in BALB/c mice. Mice were transferred to clear cages and treated with berbamine intraperitoneally after a 30 min acclimatization period. Mouse behavior was recorded for 30 min right after the subcutaneous injection of pruritogens to the nape 30 min after berbamine treatment (Figure 7A). […] We further investigated the effect of berbamine on pruritus caused by other pruritogens.
Figure 7 Effect of berbamine on acute pruritogen-induced pruritus in mice: (A) Scheme of acute pruritogen-induced pruritus mouse model. […] Statistical significance of differences between each group and CQ group was assessed using one-way ANOVA with Tukey’s post hoc test. * p < 0.05, ** p < 0.01, *** p < 0.001. […] Statistical significance of differences was determined using Student’s t-test. […]
[…] six-week-old BALB/c male mice were purchased from DBL (Chungcheong-do, Republic of Korea), and an additional 1 week was given for accommodation. […] After 30 min, pruritogen compounds (i.e., CQ, histamine, PAR2-AP, and DCA) were subcutaneously administered into the nape, and scratching bouts were recorded for 30 min. […] The total number of scratching bouts was counted by recording the number of scratching bouts in the recorded video over 30 min of observation time.

T1 sequence (Q96LB2 whole entry): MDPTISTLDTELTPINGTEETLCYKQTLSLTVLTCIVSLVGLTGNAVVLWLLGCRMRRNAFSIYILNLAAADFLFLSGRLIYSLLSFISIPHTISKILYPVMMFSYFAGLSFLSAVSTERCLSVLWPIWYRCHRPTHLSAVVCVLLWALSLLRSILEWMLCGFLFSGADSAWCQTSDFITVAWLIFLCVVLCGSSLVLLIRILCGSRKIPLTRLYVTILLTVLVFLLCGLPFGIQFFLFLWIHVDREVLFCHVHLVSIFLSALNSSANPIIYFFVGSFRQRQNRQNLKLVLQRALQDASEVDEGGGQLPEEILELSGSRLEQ

## COc1cc2c3cc1Oc1c(OC)c(OC)cc4c1[C@@H](Cc1ccc(O)c(c1)Oc1ccc(cc1)C[C@@H]3N(C)CC2)N(C)CC4 [berbamine]
[1]; 30 μM berbamine (Figure S1)
  activation of MrgprX1 by the compound itself: did not activate MrgprX1 by itself
[1]; 30 μM berbamine, CQ dose response (Figure S3)
  mode of inhibition of the activation of MrgprX1 by CQ: competitive inhibitory effect
[1]; 10 min pretreatment, 500 nM BAM8-22 (Figure S2)
  inhibition of MrgprX1 activation by BAM8-22: did not potently inhibit
[1]; HEK-293T, 30 μM test compound for 10 min, then 300 μM CQ, read-out: inhibition of the CQ-induced activation of MrgprX1 (screening)
  inhibition at 30 µM: > 90%
[1]; pretreated 10 min prior to 300 μM CQ, read-out: IC50 of inhibition of CQ-induced MrgprX1 activation
  IC50: 1600 nM
[2]
  effect on histamine-induced activation of H1R: did not affect
[3]
  effect on PAR2-AP-induced activation of PAR2: did not affect
[4]
  effect on DCA-induced activation of MrgprX4: did not alter
[5]
  effect on total scratching bouts induced by DCA: no significant effect

— paper PMC9698483, “Berbamine Reduces Chloroquine-Induced Itch in Mice through Inhibition of MrgprX1” (International Journal of Molecular Sciences, 2022)
